Assay results: patent publication US8987288B2, “Heterocyclic aminoberbamine derivatives, the preparation process and use thereof” (Hangzhou Bensheng Pharmaceutical Co., Ltd., priority 2010, dated 2015)
Converted amounts (≈) assume the structure as drawn. Like-named read-outs stand apart in the source and are kept apart here.

Columns and labels:
[1] = system: human leukemia Jurkat cells; details: cited from earlier work
MG63 (osteosarcomas) = test: Solid tumor cell growth inhibition, MTT, 72 h; format: cell-based, human
Description: (§1) Human solid tumor cell lines: HepG2 (human hepatocellular carcinoma, HCC), A549 (human lung cancer), MCF-7 (breast cancer), PANC-1 (pancreatic, cancer), PC-3 (prostate cancer). MG63 (osteosarcomas). AGS (gastric cancer), Huh7 (human hepatoma cell), Becap37 (human breast cancer cell), Hela (human cervical cancer cell), RKO (human colon adenocarcinoma cell), SW620 (human colon adenocarcinoma cell), SW480 (human colon cancer cell), MGC 803 (human gastric cancer cell). Obtaining 4000 well-growing human solid tumor cells and inoculating them into wells of a 96-well cell culture plate. The culture medium is DMEM High Glucose cell culture medium containing 10% fetal bovine serum. Alter adding the berbamine derivatives of different concentration and mixing uniformly, the plate is placed in a carbon dioxide cell incubator (5% CO2) at 37° C. and incubated for 72 hours. Then the viable cell concentration is determined by the MTT method, and the cell viability (%) alter drug treatment is calculated. In this experiment, the cell viability of control group (not treated with any compound) is set as 100%.

MCF-7 (breast cancer) = test: Solid tumor cell growth inhibition, MTT, 72 h; format: cell-based, human
Description: as §1

[2] = system: RPMI 8226 (multiple myeloma); test: Multiple myeloma cell growth inhibition, MTT, 72 h; format: cell-based, human
Method: Multiple myeloma and lymphoma cell lines: RPM18226 (multiple myeloma). Obtaining 6000 well-growing abovesaid tumor cells and inoculating them into wells of a 96-well cell culture plate. The culture medium is the 1640 cell culture medium containing 10% fetal bovine serum. After adding the berbamine derivatives of different concentrations and mixing uniformly, the plate is placed in a carbon dioxide cell incubator (5% CO2) at 37° C. and incubated for 72 hours. Then the viable cell concentration is determined by the MTT method.

[3] = system: Jurkat (acute lymphoblastic leukemia, ALL); test: Leukemia cell growth inhibition, MTT, 72 h; format: cell-based, human
Description: (§2) Leukemia cell lines; human K562 leukemia cell line (chronic myeloid leukemia, CML), K562/adr (drug-resistant chronic myeloid leukemia (CML), NB4 (acute promyelocytic leukemia, AML), Kasumi-1 (acute myeloid leukemia M2 type, AML-M2), Jurkat (acute lymphoblastic leukemia, ALL), H9 (acute lymphoblastic leukemia, ALL). Obtaining 6000 well-growing leukemia cells and inoculating them into wells of a 96-well cell culture plate. The culture medium is the 1640 cell culture medium containing 10% fetal bovine serum. After adding of the berbamine derivatives of different concentrations and mixing uniformly, the plate is placed in a carbon dioxide cell incubator (5% CO2) at 37° C. and incubated for 72 hours. Then the viable cell concentration is determined by the MTT method.

[4] = system: K562/adr (drug-resistant chronic myeloid leukemia); test: Leukemia cell growth inhibition, MTT, 72 h; format: cell-based, human
Description: as §2

[5] = system: K562 leukemia cell line (chronic myeloid leukemia, CML); test: Leukemia cell growth inhibition, MTT, 72 h; format: cell-based, human
Description: as §2

[6] = system: SW620 (human colon adenocarcinoma cell); test: Solid tumor cell growth inhibition, MTT, 72 h; format: cell-based; details: SW-620, read-out: half inhibiting concentration (IC50 value) SW620
Description: as §1

[7] = system: Becap37 (human breast cancer cell); test: Solid tumor cell growth inhibition, MTT, 72 h; format: cell-based; details: read-out: half inhibiting concentration (IC50 value) Becap37
Description: as §1

[8] = system: Hela (human cervical cancer cell); test: Solid tumor cell growth inhibition, MTT, 72 h; format: cell-based; details: read-out: half inhibiting concentration (IC50 value) Hela
Description: as §1

PC-3 (prostate cancer) = test: Solid tumor cell growth inhibition, MTT, 72 h; format: cell-based; details: Homo sapiens, read-out: half inhibiting concentration (IC50 value) PC-3
Description: as §1

[9] = system: PANC-1 (pancreatic cancer); test: Solid tumor cell growth inhibition, MTT, 72 h; format: cell-based; details: Homo sapiens, read-out: half inhibiting concentration (IC50 value) PANC-1
Description: as §1

AGS (gastric cancer) = test: Solid tumor cell growth inhibition, MTT, 72 h; format: cell-based; details: Homo sapiens, read-out: half inhibiting concentration (IC50 value) AGS
Description: as §1

[10] = system: Huh7 (human hepatoma cell); test: Solid tumor cell growth inhibition, MTT, 72 h; format: cell-based; details: Huh-7, read-out: half inhibiting concentration (IC50 value) Huh7
Description: as §1

[11] = system: SW480 (human colon cancer cell); test: Solid tumor cell growth inhibition, MTT, 72 h; format: cell-based
Description: as §1

[12] = system: HepG2 (human hepatocellular carcinoma, HCC); test: Solid tumor cell growth inhibition, MTT, 72 h; format: cell-based
Description: as §1

[13] = system: RKO (human colon adenocarcinoma cell); test: Solid tumor cell growth inhibition, MTT, 72 h; format: cell-based; details: read-out: half inhibiting concentration (IC50 value) RKO
Description: as §1

[14] = system: MGC 803 (human gastric cancer cell); test: Solid tumor cell growth inhibition, MTT, 72 h; format: cell-based
Description: as §1

A549 (human lung cancer) = test: Solid tumor cell growth inhibition, MTT, 72 h; format: cell-based
Description: as §1

[15] = system: NB4 (acute promyelocytic leukemia, AML); test: Leukemia cell growth inhibition, MTT, 72 h; format: cell-based; details: Homo sapiens, read-out: half inhibiting concentration (IC50 value) NB4
Description: as §2

[16] = system: Kasumi-1 (acute myeloid leukemia M2 type); test: Leukemia cell growth inhibition, MTT, 72 h; format: cell-based; details: Homo sapiens, read-out: half inhibiting concentration (IC50 value) Kasumi-1
Description: as §2

[17] = system: H9 (acute lymphoblastic leukemia, ALL); test: Leukemia cell growth inhibition, MTT, 72 h; format: cell-based; details: Homo sapiens, read-out: half inhibiting concentration (IC50 value) H9
Description: as §2

[18] = system: normal human peripheral blood leucocytes; details: 0.5 ug/mL to 10 ug/mL; cited from earlier work
CaM = CaM (Homo sapiens, UniProt P0DP23); details: higher than that of berbamine; cited from earlier work
[19] = system: red cell membrane CaM-independent Ca2++Mg2+ ATPase; details: stronger than that of berbamine; cited from earlier work

COc1cc2c3cc1Oc1c(OC)c(OC)cc4c1[C@@H](Cc1ccc(O)c(c1)Oc1ccc(cc1)C[C@@H]3N(C)CC2)N(C)CC4 [BBM, 6,6′,7-trimethoxy-2,2′-dimethylberbaman-12-ol]
cell viability rate ([1]; drug concentration 0.5 ug/mL): 93.69% | cell viability rate ([1]; drug concentration 10 ug/mL): 14.85% | IC50 (MG63 (osteosarcomas); Homo sapiens, MG-63, 72 hours, MTT, read-out: half inhibiting concentration (IC50 value) MG63): 9.18 mg/L (≈ 15.1 µM) | IC50 (MCF-7 (breast cancer); Homo sapiens, MCF7, 72 hours, MTT, read-out: half inhibiting concentration (IC50 value) MCF-7): 20.6 mg/L (≈ 33.8 µM) | IC50 ([2]; Homo sapiens, RPMI-8226, 72 hours, MTT, read-out: half inhibiting concentration (IC50 value) RPMI 8226): 1.17 mg/L (≈ 1.92 µM) | IC50 ([3]; Homo sapiens, Jurkat, 72 hours, MTT, read-out: half inhibiting concentration (IC50 value) Jurkat): 1.9 mg/L (≈ 3.12 µM) | IC50 ([4]; Homo sapiens, K562/Adr, 72 hours, MTT, read-out: half inhibiting concentration (IC50 value) K562adr): 3.53 mg/L (≈ 5.8 µM) | IC50 ([5]; Homo sapiens, K562, 72 hours, MTT, read-out: half inhibiting concentration (IC50 value) K562): 3 mg/L (≈ 4.93 µM) | IC50 [6]: 1.1 mg/L (≈ 1.81 µM) | IC50 [7]: 7.31 mg/L (≈ 12 µM) | IC50 [8]: 5.04 mg/L (≈ 8.28 µM) | IC50 (PC-3 (prostate cancer)): 3.7 mg/L (≈ 6.08 µM) | IC50 [9]: 12.7 mg/L (≈ 20.9 µM) | IC50 (AGS (gastric cancer)): 5.84 mg/L (≈ 9.59 µM) | IC50 [10]: 7.63 mg/L (≈ 12.5 µM) | IC50 ([11]; Homo sapiens, SW480, 72 hours, MTT, read-out: half inhibiting concentration (IC50 value) SW480): 5.74 mg/L (≈ 9.43 µM) | IC50 ([12]; Homo sapiens, HepG2, 72 hours, MTT, read-out: half inhibiting concentration (IC50 value) Hepg2): 6.67 mg/L (≈ 11 µM) | IC50 [13]: 2.34 mg/L (≈ 3.84 µM) | IC50 ([14]; Homo sapiens, MGC-803, 72 hours, MTT, read-out: half inhibiting concentration (IC50 value) MGC803): 4.96 mg/L (≈ 8.15 µM) | IC50 (A549 (human lung cancer); Homo sapiens, A549, 72 hours, MTT, read-out: half inhibiting concentration (IC50 value) A549): 5.38 mg/L (≈ 8.84 µM) | IC50 [15]: 3 mg/L (≈ 4.93 µM) | IC50 [16]: 1.3 mg/L (≈ 2.14 µM) | IC50 [17]: 5.04 mg/L (≈ 8.28 µM) | cytotoxicity on normal human peripheral blood leucocytes [18]: no obvious cytotoxicity

COc1cc2c3cc1Oc1c(OC)c(OC)cc4c1C(Cc1ccc(OCCCNc5ncc(C(=O)Nc6c(C)cccc6Cl)s5)c(c1)Oc1ccc(cc1)CC3N(C)CC2)N(C)CC4 (stereo not drawn) [Compound (2), 12-O-(3-(5-(2-chloro-6-methyl-phenyl-carbamoyl)-thiazol-2-amino)-propyl)-berbamine]
improvement of anti-MG63 (osteosarcoma) cell activity compared with berbamine (MG63 (osteosarcomas); vs berbamine): more than 12 fold

COc1cccc(NC(=O)c2sc(NCCCOc3ccc4cc3Oc3ccc(cc3)CC3c5cc(c(OC)cc5CCN3C)Oc3c(OC)c(OC)cc5c3C(C4)N(C)CC5)nc2C)c1 (stereo not drawn) [Compound (3), 12-O-(3-(5-(3-methoxy-phenyl-carbamoyl)-4-methyl-thiazol-2-amino)-propyl)-Berbamine]
improvement of anti-K562 activity compared with berbamine (second mention, K562/adr meant) ([4]; vs berbamine): 8 fold | improvement of anti-K562 activity compared with berbamine ([5]; vs berbamine): 8 fold

COc1cccc(NC(=O)c2cnc(NCCCOc3ccc4cc3Oc3ccc(cc3)CC3c5cc(c(OC)cc5CCN3C)Oc3c(OC)c(OC)cc5c3C(C4)N(C)CC5)cn2)c1 (stereo not drawn) [Compound (4), 12-O-(3-(5-(3-methoxy-phenyl-carbamoyl)-pyrazin-2-amino)-propyl)-berbamine]
improvement of anti-MCP-7 (breast cancer) cell activity compared with berbamine (MCF-7 (breast cancer); vs berbamine): more than 26 fold | improvement of anti-RPMI8226 (multiple myeloma) cell line activity compared with berbamine ([2]; vs berbamine): more than 117 fold | improvement of anti-Jurkat acute lymphoblastic leukemia activity compared with berbamine ([3]; vs berbamine): more than 13 fold | improvement of anti-SW480 cell activity compared with berbamine ([11]; vs berbamine): more than 6 fold | improvement of anti-HepG2 cell activity compared with berbamine ([12]; vs berbamine): about 9 fold | improvement of anti-MGC 803 cell activity compared with berbamine ([14]; vs berbamine): more than 8 fold

COc1cccc(NC(=O)c2ccc(NCCCOc3ccc4cc3Oc3ccc(cc3)CC3c5cc(c(OC)cc5CCN3C)Oc3c(OC)c(OC)cc5c3C(C4)N(C)CC5)nc2)c1 (stereo not drawn) [Compound (6), 12-O-(3-(5-(3-methoxy-phenyl-carbamoyl)-pyridin-2-amino)-propyl)-berbamine]
improvement of anti-A549 (human lung cancer) cell activity compared with berbamine (A549 (human lung cancer); vs berbamine): more than 14 fold

CCOCCCCOc1ccc2cc1Oc1ccc(cc1)C[C@H]1c3cc(c(OC)cc3CCN1C)Oc1c(OC)c(OC)cc3c1[C@@H](C2)N(C)CC3 [EBB, [O-(4-ethoxy)-butyl]-berbamine]
specific coefficient as CaM antagonist relative to berbamine (CaM): 6.5 times

O-Dansyl berbamine [DB]
inhibitory activity on red cell membrane CaM-independent Ca2++Mg2+ ATPase relative to berbamine [19]: 25 times
